Reference: patent publication US11180486B2, “Indolylkojyl methane analogues, process of preparation thereof and use as inhibitor of cancer cells invasion and metastasis” (Council of Scientific & Industrial Research, priority 2017, dated 2021)
Entries after “also recorded” stand apart in the source; their conditions may differ.

Tests used:
Assay type in all cases: cell-based, human
[1] = system: normal breast epithelial (fR2) cells; experiment: Cell viability (MTT) assay, normal cells
Description: Cell Culture and Reagents. The cell lines used in this study were procured from American Type Culture Collection (ATCC), Manassas, USA. MCF7, T47D and fR2 cells were cultured in RPMI-1640 medium, whereas the MDA-MB-231 cells were grown in Leibovitz's (L-15) medium supplemented with 10% fetal bovine serum (Gibco) and 1% penicillin/streptomycin (Sigma) in a humidified CO2 incubator (New Brunswick Galaxy 170 R) with 5% CO2. Reagents such as phenylmethylsulfonyl fluoride (PMSF), dithiothreitol (DTT), DMSO, crystal violet, and Bradford's reagent were purchased from Sigma-Aldrich. Protease inhibitor cocktail was procured from Roche. The antibodies for human GRP78, Par-4, MMP-2, MMP-9, NF-kB, E-cadherin and TIMP-1 were procured from Santa-Cruz Biotechnology. The β-actin antibody and the secondary antibodies such as anti-rabbit IgG and anti-mouse IgG were procured from Sigma-Aldrich.
Cell Viability Assay. The cell viability was determined by standard MTT assay method. […] The amount of coloured formazan derivatives formed was measured by taking optical density (OD) using a microplate reader (TECAN, Infinite M200 Pro) at 570 nm and the percentage cell viability was calculated. The IC50 values were calculated using GraphPad Prism software (Version 5.0). […]

[2] = system: MCF7 cells; experiment: Migration (wound closure) assay; details: after 48 h of incubation
Description: (§1) Migration Assay. The experiment was performed according to the pre-standardized procedure (Rah et al., 2012, PloS one, 7(9). p.e44039). MDA-MB-231 and MCF7 cells were plated in 6-well plates at a concentration of (1×10^6 cells/well) and allowed to form a confluent monolayer for 24 h. On the next day, the monolayer was scratched with a sterile pipette tip (20-200 μl) and washed with serum free medium to remove the detached cells. […] Wounded areas were progressively photographed under an inverted microscope with Nikon D3100 camera at 20× magnification. […]

[3] = system: MDA-MB-231 cells; experiment: Migration (wound closure) assay; details: after 48 h of incubation
Description: as §1

[4] = system: GRP78; experiment: Immunoblotting, expression of GRP78; details: for expression of intracellular GRP78 (time dependent study): 200 nM
Description: (§2) Immunoblotting. MDA-MB-231 and MCF7 cells (0.5×10^6) were plated in six well plates for overnight in a humidified CO2 incubator and then exposed to varying concentrations of 5 (50, 100 and 200 nM) for 24 h along with vehicle (dose dependent study) and 200 nM of 5 for various time points like; 0, 6, 12, 24 and 48 h (time dependent study). Cells were then harvested, washed with chilled PBS and lysed with lysis buffer (HEPES 1 mM, KCl 60 mM, NP-40 0.3%, EDTA 1 mM, DTT 1 mM, sodium orthovanadate 1 mM, PMSF 0.1 mM and cocktail protease inhibitor). The cell extractions were centrifuged at 12,000 rpm for 10 min at 4° C. Protein concentration was measured by the standard Bradford method. An equal amount (20 μg) of protein from each sample was subjected to SDS-PAGE, and proteins were transferred to PVDF membranes (PALL), blocked with 5% (w/v) non-fat milk in PBS containing 0.1% Tween-20, probed with relevant antibodies (1:1000 dilution) for 3 h at room temperature or overnight at 4° C., and subsequently washed and probed with species-specific secondary antibodies coupled to horseradish peroxidase. Immunoreactive proteins were detected by Enhanced Chemiluminescence Plus (Thermo) (Rah et al., 2012, PloS one, 7(9), p.e44039.).
(§3) Drug Potentiation Assay. Briefly, MDA-MB-231 cells were exposed to 200 nM of compound 5, 200 nM of doxorubicin alone and/or combination of both (1:1 ratio) for 48 h in cell viability (MTT) assay, for 5 days in a colony formation assay and subjected to western blotting for the expression of GRP78 and Par-4. The ability of 5 to enhance cell killing was expressed as potentiation index (PI), which was the ratio of the […]. Thus, PI>1 indicates potentiation and PI<1 indicates protection.

[5] = system: MMP-9; experiment: Immunoblotting, expression of MMP-9; details: MDA-MB-231 cells; dose dependent
Description: as §2

[6] = system: E-cadherin; experiment: Immunoblotting, expression of E-cadherin; details: MDA-MB-231 cells; dose dependent
Description: as §2

[7] = system: MDA-MB-231 cells; experiment: Drug potentiation, colony formation assay
Description: Colony Formation Assay. The experiment was performed according to the pre-standardized protocol (Amin et al., 2015, Mol. Carcinog). Accordingly, MDA-MB-231 cells were seeded in 6 well plates at a density of 1×10^3 cells/ well and incubated for 5 days by giving treatment with vehicle, compound 5, doxorubicin alone and/or combination of compound 5 plus doxorubicin (1:1 ratio). Cells were subsequently washed, fixed with methanol and stained with 0.2% crystal violet for 1 h. Cells were counted from atleast 3 random fields for the colony number under an inverted microscope and photographed at 20× magnifications.
as §3

[8] = system: MDA-MB-231 cells; experiment: Drug potentiation, cell viability (MTT) assay; details: 200 nM 5 plus 200 nM doxorubicin (1:1), 48 h
Description: as §3

## CCCCCCCC(c1oc(CO)cc(=O)c1O)c1c[nH]c2ccccc12 (stereo not shown) [Compound 5, 2-{1-(1H-indol-3-yl)octyl}-3-hydroxy-6-(hydroxymethyl)-4H-pyran-4-one]
[1]; Homo sapiens, FR2, MTT, 44 h + 4 h, mean ± SD of three experiments
  IC50: 74 µM
[1]; in words
  toxicity towards normal breast epithelial (fR2) cells: non-toxic; also recorded: less/non-toxic
[2]
  suppressed migration: 55.4%
[3]
  suppressed migration: 57.3%
[4]; 24 h time point
  expression of intracellular GRP78 (time dependent study): consistent decrease
[4]; 48 h time period
  expression of intracellular GRP78 (time dependent study): almost vanished
[4]; 100 and 200 nM, 24 h, MDA-MB-231 and MCF7 vs vehicle
  expression of GRP78 (dose dependent study): steady downregulation
[4]; MDA-MB-231, 5 and doxorubicin in combination, 24 h, vs each alone, densitometry
  decrease in the expression of GRP78: 5.1 fold
[5]
  expression of MMP-9: downregulated
[6]
  expression of E-cadherin: induced significantly
[7]; 200 nM 5 plus 200 nM doxorubicin (1:1), 5 days, colony formation
  potentiation index (PI): 5.2
[7]; summary statement, combination with doxorubicin in breast cancer cells
  potentiation of the effect of doxorubicin: ≤ 6 fold
[8]
  potentiation index (PI): 3.1
